Experimental data reported in patent publication US7960164B2, “Selective growth medium for Listeria spp” (Paradigm Diagnostics, Inc., priority 2004, dated 2011).

Columns and labels:
L. monocytogenes = experiment: Effect of acriflavin on hemolytic activity of L. monocytogenes; type: cell-based
Bacillus spp. = experiment: Inhibition of Bacillus spp. by acriflavin; type: cell-based

## Acriflavin
L. monocytogenes
  Effect on hemolytic activity of L. monocytogenes: inhibits the hemolytic activity of L. monocytogenes
Bacillus spp.
  Inhibition of Bacillus spp.: consistently inhibits all of the Bacillus spp.
